According to ChEMBL document CHEMBL1821719, “2,7-disubstituted-pyrrolo[2,1-f][1,2,4]triazines: new variant of an old template and application to the discovery of anaplastic lymphoma kinase (ALK) inhibitors with in vivo antitumor activity” (J Med Chem, 2011):
One block for each compound: values may come before it.

Legend:
[1] = target: ALK tyrosine kinase receptor (Homo sapiens, UniProt Q9UM73); assay: Inhibition of human recombinant ALK assessed as phosphorylated product using PLC-gamma/GST substrate by modified ELISA method
Insulin receptor = Insulin receptor (Homo sapiens, UniProt P06213); assay: Inhibition of IR
[2] = Half-life in mouse liver microsomes; assay type: ADME, Microsome
[3] = Half-life in rat liver microsomes; assay type: ADME, Microsome
[4] = Half-life in human liver microsomes; assay type: ADME, Microsome
Cytochrome P450 1A2 = target: T1, Cytochrome P450 1A2 (Homo sapiens, UniProt P05177); assay: Inhibition of CYP1A2; assay type: ADME
T1 sequence (P05177 whole entry): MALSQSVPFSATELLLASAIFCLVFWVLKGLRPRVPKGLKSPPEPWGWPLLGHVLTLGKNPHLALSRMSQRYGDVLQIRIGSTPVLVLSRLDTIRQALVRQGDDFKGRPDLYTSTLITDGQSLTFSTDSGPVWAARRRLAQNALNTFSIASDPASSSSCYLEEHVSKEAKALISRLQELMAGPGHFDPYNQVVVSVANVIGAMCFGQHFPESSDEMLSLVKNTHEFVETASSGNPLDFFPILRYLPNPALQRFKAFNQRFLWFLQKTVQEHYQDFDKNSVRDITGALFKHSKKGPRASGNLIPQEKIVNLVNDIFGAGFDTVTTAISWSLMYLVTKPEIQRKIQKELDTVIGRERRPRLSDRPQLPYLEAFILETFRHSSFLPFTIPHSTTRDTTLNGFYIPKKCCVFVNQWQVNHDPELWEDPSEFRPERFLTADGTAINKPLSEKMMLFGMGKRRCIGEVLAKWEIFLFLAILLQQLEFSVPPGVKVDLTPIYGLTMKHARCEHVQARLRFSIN

Cytochrome P450 2C9 = Cytochrome P450 2C9 (Homo sapiens, UniProt P11712); assay: Inhibition of CYP2C9; assay type: ADME
Cytochrome P450 2C19 = Cytochrome P450 2C19 (Homo sapiens, UniProt P33261); assay: Inhibition of CYP2C19; assay type: ADME
Cytochrome P450 2D6 = Cytochrome P450 2D6 (Homo sapiens, UniProt P10635); assay: Inhibition of CYP2D6; assay type: ADME
Cytochrome P450 3A4 = Cytochrome P450 3A4 (Homo sapiens, UniProt P08684); assay: Inhibition of CYP3A4; assay type: ADME
[5] = Oral bioavailability in Sprague-Dawley rat; assay type: ADME, organism-based; details: in vivo
[6] = Half-life in iv dosed Sprague-Dawley rat; assay type: ADME, organism-based; details: in vivo
[7] = Clearance in iv dosed Sprague-Dawley rat; assay type: ADME, organism-based; details: in vivo

Insulin receptor, sequence (P06213 28-758 limits assumed): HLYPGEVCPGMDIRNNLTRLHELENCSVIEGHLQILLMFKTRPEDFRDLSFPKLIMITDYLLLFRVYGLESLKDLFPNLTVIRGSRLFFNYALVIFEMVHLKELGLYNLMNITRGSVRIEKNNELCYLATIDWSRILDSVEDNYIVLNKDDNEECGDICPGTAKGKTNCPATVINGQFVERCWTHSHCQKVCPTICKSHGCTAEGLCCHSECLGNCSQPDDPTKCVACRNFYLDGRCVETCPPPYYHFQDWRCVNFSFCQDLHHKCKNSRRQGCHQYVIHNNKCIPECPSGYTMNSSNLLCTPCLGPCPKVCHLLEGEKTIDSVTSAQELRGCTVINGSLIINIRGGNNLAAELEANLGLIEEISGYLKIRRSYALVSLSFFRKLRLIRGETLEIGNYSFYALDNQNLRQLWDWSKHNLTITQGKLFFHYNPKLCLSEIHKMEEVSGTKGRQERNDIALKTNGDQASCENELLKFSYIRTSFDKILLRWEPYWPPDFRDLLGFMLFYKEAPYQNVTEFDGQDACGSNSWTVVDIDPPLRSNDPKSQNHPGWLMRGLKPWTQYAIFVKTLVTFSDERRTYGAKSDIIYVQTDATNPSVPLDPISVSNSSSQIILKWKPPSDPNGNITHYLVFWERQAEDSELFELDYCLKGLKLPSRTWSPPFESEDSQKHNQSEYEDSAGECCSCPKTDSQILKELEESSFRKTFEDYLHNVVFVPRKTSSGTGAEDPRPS
Insulin receptor, sequence (P06213 763-1382 limits assumed): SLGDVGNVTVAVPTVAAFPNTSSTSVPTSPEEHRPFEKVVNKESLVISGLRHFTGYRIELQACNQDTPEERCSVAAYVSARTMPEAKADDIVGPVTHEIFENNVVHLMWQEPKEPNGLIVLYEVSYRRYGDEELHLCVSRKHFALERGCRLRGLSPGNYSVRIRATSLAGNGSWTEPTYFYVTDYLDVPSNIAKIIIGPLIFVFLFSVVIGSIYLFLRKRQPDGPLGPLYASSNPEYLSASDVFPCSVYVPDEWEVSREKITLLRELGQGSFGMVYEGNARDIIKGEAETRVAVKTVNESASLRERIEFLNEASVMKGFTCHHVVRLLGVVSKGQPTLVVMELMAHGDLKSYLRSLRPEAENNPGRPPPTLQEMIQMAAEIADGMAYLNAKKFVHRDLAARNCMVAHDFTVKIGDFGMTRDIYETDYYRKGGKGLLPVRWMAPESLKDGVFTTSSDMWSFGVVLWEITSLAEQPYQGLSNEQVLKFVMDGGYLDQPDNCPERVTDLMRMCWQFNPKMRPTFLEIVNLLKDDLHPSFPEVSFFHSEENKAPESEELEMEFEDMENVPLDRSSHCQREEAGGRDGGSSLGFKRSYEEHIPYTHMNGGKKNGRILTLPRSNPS
ALK tyrosine kinase receptor, sequence (Q9UM73 whole entry): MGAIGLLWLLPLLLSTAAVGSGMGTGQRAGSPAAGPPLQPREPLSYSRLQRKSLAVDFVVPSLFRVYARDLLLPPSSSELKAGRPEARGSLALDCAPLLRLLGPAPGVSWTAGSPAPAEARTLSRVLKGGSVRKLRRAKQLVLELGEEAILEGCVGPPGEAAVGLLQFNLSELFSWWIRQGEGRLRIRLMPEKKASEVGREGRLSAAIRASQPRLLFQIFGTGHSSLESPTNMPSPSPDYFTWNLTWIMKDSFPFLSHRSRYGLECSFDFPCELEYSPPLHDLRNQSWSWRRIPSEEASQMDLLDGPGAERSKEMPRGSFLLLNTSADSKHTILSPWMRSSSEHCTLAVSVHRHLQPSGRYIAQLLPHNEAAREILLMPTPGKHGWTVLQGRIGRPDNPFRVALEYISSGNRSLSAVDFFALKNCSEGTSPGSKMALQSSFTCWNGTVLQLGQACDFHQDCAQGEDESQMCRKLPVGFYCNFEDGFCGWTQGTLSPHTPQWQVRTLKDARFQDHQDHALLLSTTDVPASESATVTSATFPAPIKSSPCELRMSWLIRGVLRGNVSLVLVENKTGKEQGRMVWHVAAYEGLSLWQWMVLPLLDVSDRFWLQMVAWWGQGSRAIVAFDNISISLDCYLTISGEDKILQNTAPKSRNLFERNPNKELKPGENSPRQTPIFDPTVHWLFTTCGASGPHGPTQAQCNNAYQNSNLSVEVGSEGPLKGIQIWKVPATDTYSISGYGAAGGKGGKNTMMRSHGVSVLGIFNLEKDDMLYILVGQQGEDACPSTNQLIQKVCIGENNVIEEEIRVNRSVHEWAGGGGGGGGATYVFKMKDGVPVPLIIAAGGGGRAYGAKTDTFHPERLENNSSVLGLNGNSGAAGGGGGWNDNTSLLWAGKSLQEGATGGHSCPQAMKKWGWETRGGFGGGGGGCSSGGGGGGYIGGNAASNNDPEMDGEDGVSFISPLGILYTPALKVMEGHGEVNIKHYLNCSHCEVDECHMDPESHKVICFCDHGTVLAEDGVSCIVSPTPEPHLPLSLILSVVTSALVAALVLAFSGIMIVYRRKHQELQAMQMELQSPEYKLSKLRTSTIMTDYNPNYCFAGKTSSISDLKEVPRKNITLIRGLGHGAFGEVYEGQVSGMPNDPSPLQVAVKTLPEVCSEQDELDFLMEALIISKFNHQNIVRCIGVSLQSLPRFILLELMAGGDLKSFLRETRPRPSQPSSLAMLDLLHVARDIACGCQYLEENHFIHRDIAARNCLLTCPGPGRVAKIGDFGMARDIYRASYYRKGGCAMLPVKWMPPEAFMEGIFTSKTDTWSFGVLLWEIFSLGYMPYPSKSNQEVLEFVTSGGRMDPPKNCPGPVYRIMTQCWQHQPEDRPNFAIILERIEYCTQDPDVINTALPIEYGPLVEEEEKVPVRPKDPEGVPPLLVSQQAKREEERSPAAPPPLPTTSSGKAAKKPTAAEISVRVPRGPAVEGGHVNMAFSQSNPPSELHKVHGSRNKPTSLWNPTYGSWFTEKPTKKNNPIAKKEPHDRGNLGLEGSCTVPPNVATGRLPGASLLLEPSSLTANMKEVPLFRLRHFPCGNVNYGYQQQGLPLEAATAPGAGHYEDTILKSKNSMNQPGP
Cytochrome P450 2C9, sequence (P11712 whole entry): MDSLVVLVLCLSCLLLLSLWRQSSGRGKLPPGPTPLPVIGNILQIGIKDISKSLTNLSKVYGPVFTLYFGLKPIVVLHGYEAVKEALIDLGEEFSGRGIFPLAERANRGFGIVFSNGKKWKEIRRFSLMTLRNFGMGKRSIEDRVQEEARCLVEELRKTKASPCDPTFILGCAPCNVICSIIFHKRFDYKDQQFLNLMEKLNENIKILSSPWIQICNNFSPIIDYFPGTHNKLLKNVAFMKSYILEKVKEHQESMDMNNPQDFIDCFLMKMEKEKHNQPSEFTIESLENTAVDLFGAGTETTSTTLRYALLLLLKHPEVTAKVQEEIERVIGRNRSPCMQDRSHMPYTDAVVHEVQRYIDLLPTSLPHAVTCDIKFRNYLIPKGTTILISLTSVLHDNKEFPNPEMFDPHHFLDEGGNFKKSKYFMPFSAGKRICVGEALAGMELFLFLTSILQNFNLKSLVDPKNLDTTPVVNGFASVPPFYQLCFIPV
Cytochrome P450 2D6, sequence (P10635 whole entry): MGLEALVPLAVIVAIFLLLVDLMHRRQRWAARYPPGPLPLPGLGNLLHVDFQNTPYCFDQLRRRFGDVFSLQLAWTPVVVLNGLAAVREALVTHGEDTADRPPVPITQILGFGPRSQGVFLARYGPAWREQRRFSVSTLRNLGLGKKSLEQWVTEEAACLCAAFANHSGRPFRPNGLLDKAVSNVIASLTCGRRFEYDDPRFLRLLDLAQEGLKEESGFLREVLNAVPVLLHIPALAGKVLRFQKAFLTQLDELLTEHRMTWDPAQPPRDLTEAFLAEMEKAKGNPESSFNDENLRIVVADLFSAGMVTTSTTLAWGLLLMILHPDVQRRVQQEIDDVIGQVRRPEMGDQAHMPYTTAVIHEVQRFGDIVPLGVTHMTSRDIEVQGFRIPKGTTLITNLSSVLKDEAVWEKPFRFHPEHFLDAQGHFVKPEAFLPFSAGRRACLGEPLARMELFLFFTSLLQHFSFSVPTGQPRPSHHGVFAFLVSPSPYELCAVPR
Cytochrome P450 2C19, sequence (P33261 whole entry): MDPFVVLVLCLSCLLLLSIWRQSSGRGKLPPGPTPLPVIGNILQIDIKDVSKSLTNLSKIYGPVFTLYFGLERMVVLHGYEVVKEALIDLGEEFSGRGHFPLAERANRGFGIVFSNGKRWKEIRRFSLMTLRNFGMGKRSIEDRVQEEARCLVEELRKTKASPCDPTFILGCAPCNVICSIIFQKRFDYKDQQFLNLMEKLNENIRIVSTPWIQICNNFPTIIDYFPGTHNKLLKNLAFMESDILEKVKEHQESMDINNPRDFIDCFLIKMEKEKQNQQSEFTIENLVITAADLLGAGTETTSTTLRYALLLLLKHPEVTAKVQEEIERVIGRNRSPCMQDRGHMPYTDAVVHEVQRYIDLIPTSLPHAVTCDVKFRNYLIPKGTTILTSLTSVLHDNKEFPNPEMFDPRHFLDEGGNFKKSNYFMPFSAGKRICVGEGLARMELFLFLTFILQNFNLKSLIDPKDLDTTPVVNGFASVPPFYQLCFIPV
Cytochrome P450 3A4, sequence (P08684 whole entry): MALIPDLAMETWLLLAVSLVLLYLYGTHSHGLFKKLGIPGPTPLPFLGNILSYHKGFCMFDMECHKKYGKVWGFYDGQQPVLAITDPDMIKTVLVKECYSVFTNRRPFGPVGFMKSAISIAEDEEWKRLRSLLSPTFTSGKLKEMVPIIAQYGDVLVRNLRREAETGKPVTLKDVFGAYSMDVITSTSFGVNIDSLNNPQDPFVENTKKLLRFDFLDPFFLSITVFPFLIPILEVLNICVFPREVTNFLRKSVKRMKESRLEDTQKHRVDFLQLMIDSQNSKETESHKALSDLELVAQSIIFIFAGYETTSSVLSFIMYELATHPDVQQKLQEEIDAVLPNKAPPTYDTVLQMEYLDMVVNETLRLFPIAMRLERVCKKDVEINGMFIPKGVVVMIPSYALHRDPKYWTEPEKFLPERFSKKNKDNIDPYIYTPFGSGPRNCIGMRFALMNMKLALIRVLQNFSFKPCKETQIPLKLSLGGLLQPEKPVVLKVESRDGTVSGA

Structure (SMILES): CN1CCN(c2ccc(Nc3ncc4ccc(-c5ccccc5N(C)S(C)(=O)=O)n4n3)cc2)CC1
IC50 [1]: 7 nM
IC50 (Insulin receptor): 366 nM
half-life [2]: 30 min
half-life [3]: 21 min
half-life [4]: 40 min
IC50 (Cytochrome P450 1A2): > 30000 nM
IC50 (Cytochrome P450 2C9): > 30000 nM
IC50 (Cytochrome P450 2C19): > 30000 nM
IC50 (Cytochrome P450 2D6): > 30000 nM
IC50 (Cytochrome P450 3A4): 14600 nM

Structure (SMILES): COc1cc(Nc2ncc3ccc(-c4ccccc4)n3n2)cc(OC)c1OC
IC50 [1]: 212 nM
IC50 (Insulin receptor): 295 nM

Structure (SMILES): COCCN1CCc2ccc(Nc3ncc4ccc(-c5ccccc5)n4n3)cc2CC1
IC50 [1]: 38 nM
IC50 (Insulin receptor): 19 nM

Structure (SMILES): CN1CCN(c2ccc(Nc3ncc4ccc(-c5ccccc5C(N)=O)n4n3)cc2)CC1
IC50 [1]: 726 nM
IC50 (Insulin receptor): 326 nM

Structure (SMILES): CN1CCN(c2ccc(Nc3ncc4ccc(-c5ccccc5S(C)(=O)=O)n4n3)cc2)CC1
IC50 [1]: 883 nM
IC50 (Insulin receptor): > 2000 nM

More lines, now with the values ahead:

IC50 [1]: > 2000 nM
IC50 (Insulin receptor): 194 nM
Structure (SMILES): c1ccc(-c2ccc3cnc(Nc4ccc(N5CCOCC5)cc4)nn23)cc1

IC50 [1]: 48 nM
IC50 (Insulin receptor): 35 nM
Structure (SMILES): CN1CCN(c2ccc(Nc3ncc4ccc(-c5ccccc5)n4n3)cc2)CC1

IC50 [1]: 20 nM
IC50 (Insulin receptor): 123 nM
half-life [2]: 8 min
half-life [3]: 14 min
half-life [4]: 40 min
IC50 (Cytochrome P450 1A2): > 30000 nM
IC50 (Cytochrome P450 2C9): > 30000 nM
IC50 (Cytochrome P450 2C19): > 30000 nM
IC50 (Cytochrome P450 2D6): > 30000 nM
IC50 (Cytochrome P450 3A4): 9400 nM
bioavailability [5]: 4%
half-life [6]: 30 min
clearance [7]: 60 mL/min/kg
Structure (SMILES): COc1ccccc1-c1ccc2cnc(Nc3ccc(N4CCN(C)CC4)cc3)nn12
